Experimental data taken from the OligoGym collection.
HELM strings list units from the 5' end as sugar, base in round brackets, then linkage (d deoxyribose, r ribose, m 2'-O-methyl, p phosphodiester). Strings are as the collection lists them; they lack the last nucleoside at the 3' end of the tested compound. [moe] = 2'-O-(2-methoxyethyl) (MOE); [sp] = phosphorothioate linkage; [m5C] = 5-methylcytosine

Target: UBE3A-ATS
Experiment: mouse, dose not given
Conditions: ASO

Row | Substance | 3 h FOB score
1 | RNA1{[moe](T)[sp].[moe]([m5C])p.[moe](A)p.[moe](G)p.[moe](T)p.d(T)[sp].d(A)[sp].d(G)[sp].d(G)[sp].d(T)[sp].d(T)[sp].d(A)[sp].d(G)[sp].d(T)[sp].d(G)[sp].[moe]([m5C])p.[moe](A)p.[moe]([m5C])[sp].[moe](A)}$$$$ (last 3' nucleoside missing) | 5 score 0-7
2 | RNA1{[moe](T)[sp].[moe]([m5C])p.[moe](A)p.[moe](G)p.[moe](T)p.d(T)[sp].d(A)[sp].d(G)[sp].d(T)[sp].d([m5C])[sp].d(A)[sp].d(G)[sp].d(G)[sp].d(T)[sp].d(T)[sp].[moe](A)p.[moe](G)p.[moe](G)[sp].[moe](G)}$$$$ (last 3' nucleoside missing) | 4.2 score 0-7
3 | RNA1{[moe](T)[sp].[moe]([m5C])p.[moe](A)p.[moe](G)p.[moe]([m5C])p.d(A)[sp].d([m5C])[sp].d(T)[sp].d(T)[sp].d(A)[sp].d(G)[sp].d(G)[sp].d(T)[sp].d(A)[sp].d(G)[sp].[moe](T)p.[moe](T)p.[moe]([m5C])[sp].[moe](A)}$$$$ (last 3' nucleoside missing) | 5 score 0-7
4 | RNA1{[moe](T)[sp].[moe]([m5C])p.[moe](A)p.[moe](G)p.d(T)[sp].d(T)[sp].d(A)[sp].d(G)[sp].d(G)[sp].d(T)[sp].d(T)[sp].d(A)[sp].d(G)[sp].d(T)[sp].[moe](G)p.[moe]([m5C])p.[moe](A)p.[moe]([m5C])[sp].[moe](A)}$$$$ (last 3' nucleoside missing) | 4 score 0-7
5 | RNA1{[moe](T)[sp].[moe]([m5C])p.[moe](A)p.[moe](T)[sp].d([m5C])[sp].d(T)[sp].d([m5C])[sp].d(G)[sp].d(G)[sp].d(G)[sp].d(T)[sp].d(A)[sp].[moe](T)p.[moe](A)p.[moe](T)p.[moe](A)[sp].[moe](A)}$$$$ (last 3' nucleoside missing) | 5.3 score 0-7
6 | RNA1{[moe](T)[sp].[moe]([m5C])p.[moe](A)p.[moe](T)p.[moe](G)p.d(T)[sp].d(G)[sp].d([m5C])[sp].d(A)[sp].d(T)[sp].d(A)[sp].d([m5C])[sp].d([m5C])[sp].d([m5C])[sp].d(A)[sp].[moe](G)p.[moe](G)p.[moe](G)[sp].[moe](T)}$$$$ (last 3' nucleoside missing) | 1 score 0-7
7 | RNA1{[moe](T)[sp].[moe]([m5C])p.[moe](A)p.[moe](T)p.[moe](T)p.d(A)[sp].d(T)[sp].d(T)[sp].d([m5C])[sp].d(T)[sp].d([m5C])[sp].d(T)[sp].d(A)[sp].d(G)[sp].d(T)[sp].[moe](G)p.[moe]([m5C])p.[moe]([m5C])[sp].[moe](T)}$$$$ (last 3' nucleoside missing) | 1 score 0-7
8 | RNA1{[moe](T)[sp].[moe]([m5C])p.[moe](A)p.[moe](T)p.[moe]([m5C])[sp].d(T)[sp].d([m5C])[sp].d(G)[sp].d(G)[sp].d(G)[sp].d(T)[sp].d(A)[sp].d(T)[sp].[moe](A)p.[moe](T)p.[moe](A)[sp].[moe](A)}$$$$ (last 3' nucleoside missing) | 3 score 0-7
9 | RNA1{[moe](T)[sp].[moe]([m5C])p.[moe](A)p.[moe](T)p.[moe]([m5C])p.[moe](T)[sp].d([m5C])[sp].d(G)[sp].d(G)[sp].d(G)[sp].d(T)[sp].d(A)[sp].d(T)[sp].d(A)[sp].[moe](T)p.[moe](A)[sp].[moe](A)}$$$$ (last 3' nucleoside missing) | 2.3 score 0-7
10 | RNA1{[moe](T)[sp].[moe]([m5C])p.[moe](A)p.[moe](T)p.[moe]([m5C])p.[moe](T)p.d([m5C])[sp].d(G)[sp].d(G)[sp].d(G)[sp].d(T)[sp].d(A)[sp].d(T)[sp].d(A)[sp].d(T)[sp].d(A)[sp].[moe](A)p.[moe](A)[sp].[moe](T)}$$$$ (last 3' nucleoside missing) | 2 score 0-7
11 | RNA1{[moe](T)[sp].[moe]([m5C])p.[moe](A)p.[moe](T)p.[moe]([m5C])p.d(T)[sp].d([m5C])[sp].d(G)[sp].d(G)[sp].d(G)[sp].d(T)[sp].d(A)[sp].d(T)[sp].d(A)[sp].d(T)[sp].[moe](A)p.[moe](A)p.[moe](A)[sp].[moe](T)}$$$$ (last 3' nucleoside missing) | 3.3 score 0-7
12 | RNA1{[moe](T)[sp].[moe]([m5C])p.[moe](A)p.[moe](T)p.d([m5C])[sp].d(T)[sp].d([m5C])[sp].d(G)[sp].d(G)[sp].d(G)[sp].d(T)[sp].d(A)[sp].d(T)[sp].d(A)[sp].[moe](T)p.[moe](A)p.[moe](A)p.[moe](A)[sp].[moe](T)}$$$$ (last 3' nucleoside missing) | 4 score 0-7
13 | RNA1{[moe](T)[sp].[moe]([m5C])p.[moe](A)p.[moe]([m5C])[sp].d([m5C])[sp].d(A)[sp].d(T)[sp].d(T)[sp].d(T)[sp].d(T)[sp].d(G)[sp].d(A)[sp].[moe]([m5C])p.[moe]([m5C])p.[moe](T)p.[moe](T)[sp].[moe]([m5C])}$$$$ (last 3' nucleoside missing) | 0.3 score 0-7
14 | RNA1{[moe](T)[sp].[moe]([m5C])p.[moe](A)p.[moe]([m5C])p.[moe](A)p.d(T)[sp].d(T)[sp].d(A)[sp].d([m5C])[sp].d([m5C])[sp].d([m5C])[sp].d(A)[sp].d(T)[sp].d([m5C])[sp].d([m5C])[sp].[moe](G)p.[moe](T)p.[moe](T)[sp].[moe]([m5C])}$$$$ (last 3' nucleoside missing) | 0 score 0-7
15 | RNA1{[moe](T)[sp].[moe]([m5C])p.[moe](A)p.[moe]([m5C])p.[moe](T)p.d(G)[sp].d(A)[sp].d(G)[sp].d(T)[sp].d(T)[sp].d(T)[sp].d(T)[sp].d(T)[sp].d(G)[sp].d(T)[sp].[moe](A)p.[moe](G)p.[moe](T)[sp].[moe](T)}$$$$ (last 3' nucleoside missing) | 3.7 score 0-7
16 | RNA1{[moe](T)[sp].[moe]([m5C])p.[moe](A)p.[moe]([m5C])p.[moe]([m5C])[sp].d(A)[sp].d(T)[sp].d(T)[sp].d(T)[sp].d(T)[sp].d(G)[sp].d(A)[sp].d([m5C])[sp].[moe]([m5C])p.[moe](T)p.[moe](T)[sp].[moe]([m5C])}$$$$ (last 3' nucleoside missing) | 2 score 0-7
17 | RNA1{[moe](T)[sp].[moe]([m5C])p.[moe](A)p.[moe]([m5C])p.[moe]([m5C])p.[moe](A)[sp].d(T)[sp].d(T)[sp].d(T)[sp].d(T)[sp].d(G)[sp].d(A)[sp].d([m5C])[sp].d([m5C])[sp].[moe](T)p.[moe](T)[sp].[moe]([m5C])}$$$$ (last 3' nucleoside missing) | 0.3 score 0-7
18 | RNA1{[moe](T)[sp].[moe]([m5C])p.[moe](A)p.[moe]([m5C])p.[moe]([m5C])p.[moe](A)p.d(T)[sp].d(T)[sp].d(T)[sp].d(T)[sp].d(G)[sp].d(A)[sp].d([m5C])[sp].d([m5C])[sp].d(T)[sp].d(T)[sp].[moe]([m5C])p.[moe](T)[sp].[moe](T)}$$$$ (last 3' nucleoside missing) | 1 score 0-7
19 | RNA1{[moe](T)[sp].[moe]([m5C])p.[moe](A)p.[moe]([m5C])p.[moe]([m5C])p.d(A)[sp].d(T)[sp].d(T)[sp].d(T)[sp].d(T)[sp].d(G)[sp].d(A)[sp].d([m5C])[sp].d([m5C])[sp].d(T)[sp].[moe](T)p.[moe]([m5C])p.[moe](T)[sp].[moe](T)}$$$$ (last 3' nucleoside missing) | 1 score 0-7
20 | RNA1{[moe](T)[sp].[moe]([m5C])p.[moe](A)p.[moe]([m5C])p.d([m5C])[sp].d(A)[sp].d(T)[sp].d(T)[sp].d(T)[sp].d(T)[sp].d(G)[sp].d(A)[sp].d([m5C])[sp].d([m5C])[sp].[moe](T)p.[moe](T)p.[moe]([m5C])p.[moe](T)[sp].[moe](T)}$$$$ (last 3' nucleoside missing) | 2 score 0-7
21 | RNA1{[moe](T)[sp].[moe]([m5C])p.[moe](G)p.[moe](G)p.[moe](A)p.d(T)[sp].d(A)[sp].d(T)[sp].d(A)[sp].d(G)[sp].d([m5C])[sp].d(T)[sp].d(T)[sp].d(T)[sp].d(T)[sp].[moe](A)p.[moe]([m5C])p.[moe](A)[sp].[moe](T)}$$$$ (last 3' nucleoside missing) | 1 score 0-7
22 | RNA1{[moe](T)[sp].[moe]([m5C])p.[moe](T)p.[moe](G)p.[moe](G)p.d(A)[sp].d(A)[sp].d(T)[sp].d([m5C])[sp].d(T)[sp].d(T)[sp].d(G)[sp].d(T)[sp].d(A)[sp].d(G)[sp].[moe](A)p.[moe](G)p.[moe](G)[sp].[moe](A)}$$$$ (last 3' nucleoside missing) | 2.7 score 0-7
23 | RNA1{[moe](T)[sp].[moe]([m5C])p.[moe](T)p.[moe](G)p.[moe]([m5C])p.[moe](T)p.d([m5C])[sp].d(A)[sp].d(G)[sp].d(T)[sp].d(T)[sp].d(A)[sp].d(G)[sp].d(G)[sp].d(T)[sp].d(T)[sp].[moe](A)p.[moe](G)[sp].[moe](T)}$$$$ (last 3' nucleoside missing) | 4 score 0-7
24 | RNA1{[moe](T)[sp].[moe]([m5C])p.[moe](T)p.[moe](G)p.[moe]([m5C])p.d(T)[sp].d(A)[sp].d(T)[sp].d(T)[sp].d(G)[sp].d(T)[sp].d(T)[sp].d(G)[sp].d(G)[sp].d(A)[sp].[moe](T)p.[moe](A)p.[moe](T)[sp].[moe]([m5C])}$$$$ (last 3' nucleoside missing) | 6.5 score 0-7
25 | RNA1{[moe](T)[sp].[moe]([m5C])p.[moe](T)p.[moe](G)p.[moe]([m5C])p.d(T)[sp].d([m5C])[sp].d(A)[sp].d(G)[sp].d(T)[sp].d(T)[sp].d(A)[sp].d(G)[sp].d(G)[sp].d(T)[sp].[moe](T)p.[moe](A)p.[moe](G)[sp].[moe](T)}$$$$ (last 3' nucleoside missing) | 7 score 0-7
26 | RNA1{[moe](T)[sp].[moe]([m5C])p.[moe](T)p.[moe](G)p.d([m5C])[sp].d(T)[sp].d([m5C])[sp].d(A)[sp].d(G)[sp].d(T)[sp].d(T)[sp].d(A)[sp].d(G)[sp].d(G)[sp].[moe](T)p.[moe](T)p.[moe](A)p.[moe](G)[sp].[moe](T)}$$$$ (last 3' nucleoside missing) | 4 score 0-7
27 | RNA1{[moe](T)[sp].[moe]([m5C])p.[moe](T)p.[moe](T)p.[moe](A)p.d([m5C])[sp].d(T)[sp].d(G)[sp].d(A)[sp].d(T)[sp].d(T)[sp].d([m5C])[sp].d(A)[sp].d(G)[sp].d([m5C])[sp].[moe]([m5C])p.[moe](A)p.[moe](T)[sp].[moe](T)}$$$$ (last 3' nucleoside missing) | 4 score 0-7
